From US8901118B2, “Compounds and methods for kinase modulation, and indications therefor” (Plexxikon Inc., priority 2010, dated 2014)

Tests used:
[1] = molecular target: CYP2C19 (Homo sapiens, UniProt P33261); experiment: CYP2C19 inhibition (fluorescent substrate CEC); format: in vitro ADME; conditions: read-out: Cyp IC50 2C19
Summary of the method: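 10-pt 1:1 dilution series (from 100 mM DMSO stock) in NADPH regen cofactor mix, 5% MeCN; 10 min preincubation at 37 °C. Enzyme reaction 37 °C: 1A2 15 min, 2C9 45 min, 2C19/2D6 30 min. Fluorescence readout; IC50 fit.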

[2] = molecular target: T1, BCR-FMS BaF3 cells (Homo sapiens, UniProt P07333); experiment: BaF3 BCR-FMS cell proliferation assay (ATPlite); format: cell-based; conditions: read-out: Inhibition of Cell Proliferation IC50, BCR/BaF3 Fms
T1 construct: fused on or other part: P11274 (Breakpoint cluster region protein)
T1 sequence (P07333 582-910): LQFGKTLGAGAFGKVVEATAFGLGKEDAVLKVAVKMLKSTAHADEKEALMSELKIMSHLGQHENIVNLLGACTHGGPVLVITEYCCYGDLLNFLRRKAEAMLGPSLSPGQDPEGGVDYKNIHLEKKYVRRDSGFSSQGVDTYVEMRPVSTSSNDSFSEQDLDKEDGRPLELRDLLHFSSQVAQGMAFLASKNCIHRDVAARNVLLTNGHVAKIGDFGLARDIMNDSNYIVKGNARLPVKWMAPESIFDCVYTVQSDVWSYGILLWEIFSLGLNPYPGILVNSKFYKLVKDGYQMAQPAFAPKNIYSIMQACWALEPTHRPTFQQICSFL
Summary of the method: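 Cells are plated overnight: BaF3 at 10,000/well in G418 medium without WEHI/IL-3, MV-4-11 at 25,000/well in IMDM with 10% FBS. An 8-point 1:3 compound titration (10 μM top) is then added, and plates are incubated 3 days at 37 °C before ATPlite readout and IC50 determination.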

Sequence of CYP2C19 (P33261 whole entry): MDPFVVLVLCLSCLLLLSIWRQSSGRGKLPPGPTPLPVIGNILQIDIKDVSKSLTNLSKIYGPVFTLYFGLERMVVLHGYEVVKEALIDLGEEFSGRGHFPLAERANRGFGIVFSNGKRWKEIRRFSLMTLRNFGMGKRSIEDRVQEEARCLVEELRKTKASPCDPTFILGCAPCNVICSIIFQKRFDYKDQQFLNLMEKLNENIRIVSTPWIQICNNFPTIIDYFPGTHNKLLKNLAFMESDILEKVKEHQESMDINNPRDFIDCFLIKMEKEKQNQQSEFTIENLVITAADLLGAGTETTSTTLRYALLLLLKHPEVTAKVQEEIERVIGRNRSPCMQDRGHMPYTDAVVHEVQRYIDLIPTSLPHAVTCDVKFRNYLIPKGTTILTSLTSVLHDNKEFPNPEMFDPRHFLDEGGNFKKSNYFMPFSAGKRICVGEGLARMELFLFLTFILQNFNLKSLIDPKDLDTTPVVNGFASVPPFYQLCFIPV

Structure (SMILES) | IC50 [1] [µM] | IC50 [2] [µM]
FC1(F)CCC(Nc2ncc(Cc3c[nH]c4ncc(Cl)cc34)cn2)CC1 [Compound P-3004] | 5 to 10 | < 0.1
Clc1cnc2[nH]cc(Cc3cnc(NC4CCCCCC4)nc3)c2c1 [Compound P-3006, [5-(5-Chloro-1H-pyrrolo[2,3-b]pyridin-3-ylmethyl)-pyrimidin-2-yl]-cycloheptyl-amine] | > 10 | < 1
Cc1cnc2[nH]cc(Cc3cnc(Nc4ccc(C(F)(F)F)nc4)nc3)c2c1 [Compound P-3018, [5-(5-Methyl-1H-pyrrolo[2,3-b]pyridin-3-ylmethyl)-pyrimidin-2-yl]-(6-trifluoromethyl-pyridin-3-yl)-amine] | > 10 | < 0.1
COc1ccc(Nc2ccc(Cc3c[nH]c4ncc(C)cc34)c(F)n2)cn1 [Compound P-3019, [6-fluoro-5-(5-methyl-1H-pyrrolo[2,3-b]pyridin-3-ylmethyl)-pyridin-2-yl]-(6-methoxy-pyridin-3-yl)-amine] | < 5 | < 0.01
CCOc1ccc(Nc2ccc(Cc3c[nH]c4ncc(C)cc34)c(F)n2)cn1 [Compound P-3039, (6-ethoxy-pyridin-3-yl)-[6-fluoro-5-(5-methyl-1H-pyrrolo[2,3-b]pyridin-3-ylmethyl)-pyridin-2-yl]-amine] | > 10 | < 0.01
COc1ccc(Nc2ccc(C(=O)c3c[nH]c4ncc(C)cc34)c(F)n2)cn1 [Compound P-3040, [2-Fluoro-6-(6-methoxy-pyridin-3-ylamino)-pyridin-3-yl]-(5-methyl-1H-pyrrolo[2,3-b]pyridin-3-yl)-methanone] | > 10 | < 0.1
Cc1cnc2[nH]cc(Cc3ccc(Nc4ccc(C)nc4)nc3F)c2c1 [Compound P-3041, [6-Fluoro-5-(5-methyl-1H-pyrrolo[2,3-b]pyridin-3-ylmethyl)-pyridin-2-yl]-(6-methyl-pyridin-3-yl)-amine] | > 10 | < 0.01
Cc1cnc2[nH]cc(C(=O)c3ccc(Nc4ccc(C)nc4)nc3F)c2c1 [Compound P-3043, [2-Fluoro-6-(6-methyl-pyridin-3-ylamino)-pyridin-3-yl]-(5-methyl-1H-pyrrolo[2,3-b]pyridin-3-yl)-methanone] | > 10 | < 0.1
Cc1ccc(Nc2ccc(C(=O)c3c[nH]c4ncc(Cl)cc34)c(F)n2)cn1 [Compound P-3044, (5-Chloro-1H-pyrrolo[2,3-b]pyridin-3-yl)-[2-fluoro-6-(6-methyl-pyridin-3-ylamino)-pyridin-3-yl]-methanone] | > 10 | < 0.1
CCc1ccc(Nc2ccc(Cc3c[nH]c4ncc(C)cc34)c(F)n2)cn1 [Compound P-3048, (6-Ethyl-pyridin-3-yl)-[6-fluoro-5-(5-methyl-1H-pyrrolo[2,3-b]pyridin-3-ylmethyl)-pyridin-2-yl]-amine] | < 5 | < 0.01
CCc1ccc(Nc2ccc(C(=O)c3c[nH]c4ncc(C)cc34)c(F)n2)cn1 [Compound P-3049, [6-(6-Ethyl-pyridin-3-ylamino)-2-fluoro-pyridin-3-yl]-(5-methyl-1H-pyrrolo[2,3-b]pyridin-3-yl)-methanone] | > 10 | < 0.01
Cc1cnc2[nH]cc(Cc3ccc(Nc4ccc(C5CC5)nc4)nc3F)c2c1 [Compound P-3050, (6-Cyclopropyl-pyridin-3-yl)-[6-fluoro-5-(5-methyl-1H-pyrrolo[2,3-b]pyridin-3-ylmethyl)-pyridin-2-yl]-amine] | > 10 | < 0.1
Cc1cnc2[nH]cc(C(=O)c3ccc(Nc4ccc(C5CC5)nc4)nc3F)c2c1 [Compound P-3051, [6-(6-Cyclopropyl-pyridin-3-ylamino)-2-fluoro-pyridin-3-yl]-(5-methyl-1H-pyrrolo[2,3-b]pyridin-3-yl)-methanone] | > 10 | < 0.1
O=C(c1ccc(Nc2ccc(C3CC3)nc2)nc1F)c1c[nH]c2ncccc12 [Compound P-3052, [6-(6-Cyclopropyl-pyridin-3-ylamino)-2-fluoro-pyridin-3-yl]-(1H-pyrrolo[2,3-b]pyridin-3-yl)-methanone] | 5 to 10 | < 0.1
Fc1nc(Nc2ccc(C3CC3)nc2)ccc1Cc1c[nH]c2ncccc12 [Compound P-3053, (6-Cyclopropyl-pyridin-3-yl)-[6-fluoro-5-(1H-pyrrolo[2,3-b]pyridin-3-ylmethyl)-pyridin-2-yl]-amine] | > 10 | < 0.01
COc1ccc(Nc2ccc(Cc3c[nH]c4ncnc(OC)c34)c(F)n2)cn1 [Compound P-4001, [6-Fluoro-5-(4-methoxy-7H-pyrrolo[2,3-d]pyrimidin-5-ylmethyl)-pyridin-2-yl]-(6-methoxy-pyridin-3-yl)-amine] | < 5 | < 0.01
COc1ccc(Nc2ccc(Cc3c[nH]c4ncnc(C)c34)c(F)n2)cn1 [Compound P-4002, [6-Fluoro-5-(4-methyl-7H-pyrrolo[2,3-d]pyrimidin-5-ylmethyl)-pyridin-2-yl]-(6-methoxy-pyridin-3-yl)-amine] | > 10 | < 0.1
COc1ncnc2[nH]cc(Cc3ccc(Nc4ccc(Cl)nc4)nc3F)c12 [Compound P-4003, (6-Chloro-pyridin-3-yl)-[6-fluoro-5-(4-methoxy-7H-pyrrolo[2,3-d]pyrimidin-5-ylmethyl)-pyridin-2-yl]-amine] | > 10 | < 0.1
COc1ncnc2[nH]cc(Cc3ccc(Nc4ccc(C5CC5)nc4)nc3F)c12 [Compound P-4004, (6-Cyclopropyl-pyridin-3-yl)-[6-fluoro-5-(4-methoxy-7H-pyrrolo[2,3-d]pyrimidin-5-ylmethyl)-pyridin-2-yl]-amine] | > 10 | < 0.01
CCOc1ccc(Nc2ccc(Cc3c[nH]c4ncnc(OC)c34)c(F)n2)cn1 [Compound P-4005, (6-Ethoxy-pyridin-3-yl)-[6-fluoro-5-(4-methoxy-7H-pyrrolo[2,3-d]pyrimidin-5-ylmethyl)-pyridin-2-yl]-amine] | > 10 | < 0.01
CCOc1ccc(Nc2ccc(Cc3c[nH]c4ncnc(C)c34)c(F)n2)cn1 [Compound P-4006, (6-Ethoxy-pyridin-3-yl)-[6-fluoro-5-(4-methyl-7H-pyrrolo[2,3-d]pyrimidin-5-ylmethyl)-pyridin-2-yl]-amine] | > 10 | < 0.01
CCc1ccc(Nc2ccc(Cc3c[nH]c4ncnc(OC)c34)c(F)n2)cn1 [Compound P-4007, (6-Ethyl-pyridin-3-yl)-[6-fluoro-5-(4-methoxy-7H-pyrrolo[2,3-d]pyrimidin-5-ylmethyl)-pyridin-2-yl]-amine] | > 10 | < 0.01
CCOc1ccc(Nc2ccc(Cc3c[nH]c4ncnc(OCCOC)c34)c(F)n2)cn1 [Compound P-4008, (6-Ethoxy-pyridin-3-yl)-{6-fluoro-5-[4-(2-methoxy-ethoxy)-7H-pyrrolo[2,3-d]pyrimidin-5-ylmethyl]-pyridin-2-yl}-amine] | > 10 | < 0.01
CCc1ccc(Nc2ccc(Cc3c[nH]c4ncnc(C)c34)c(F)n2)cn1 [Compound P-4009, (6-Ethyl-pyridin-3-yl)-[6-fluoro-5-(4-methyl-7H-pyrrolo[2,3-d]pyrimidin-5-ylmethyl)-pyridin-2-yl]-amine] | 5 to 10 | < 0.01
COc1ncnc2[nH]cc(Cc3ccc(Nc4ccc(C)nc4)nc3F)c12 [Compound P-4010, [6-Fluoro-5-(4-methoxy-7H-pyrrolo[2,3-d]pyrimidin-5-ylmethyl)-pyridin-2-yl]-(6-methyl-pyridin-3-yl)-amine] | > 10 | < 0.01
CCn1cc(Nc2ccc(Cc3c[nH]c4ncnc(OC)c34)c(F)n2)cn1 [Compound P-4011, (1-Ethyl-1H-pyrazol-4-yl)-[6-fluoro-5-(4-methoxy-7H-pyrrolo[2,3-d]pyrimidin-5-ylmethyl)-pyridin-2-yl]-amine] | > 10 | < 0.01
CCOc1ncnc2[nH]cc(Cc3ccc(Nc4cnn(CC)c4)nc3F)c12 [Compound P-4012, [5-(4-Ethoxy-7H-pyrrolo[2,3-d]pyrimidin-5-ylmethyl)-6-fluoro-pyridin-2-yl]-(1-ethyl-1H-pyrazol-4-yl)-amine] | > 10 | < 0.01
CCn1cc(Nc2ccc(Cc3c[nH]c4ncnc(C)c34)c(F)n2)cn1 [Compound P-4013, (1-Ethyl-1H-pyrazol-4-yl)-[6-fluoro-5-(4-methyl-7H-pyrrolo[2,3-d]pyrimidin-5-ylmethyl)-pyridin-2-yl]-amine] | > 10 | < 0.01
CCn1cc(Nc2ccc(Cc3c[nH]c4ncnc(OCCOC)c34)c(F)n2)cn1 [Compound P-4014, (1-Ethyl-1H-pyrazol-4-yl)-{6-fluoro-5-[4-(2-methoxy-ethoxy)-7H-pyrrolo[2,3-d]pyrimidin-5-ylmethyl]-pyridin-2-yl}-amine] | > 10 | < 0.1
COCCOc1ncnc2[nH]cc(Cc3ccc(Nc4ccc(C)nc4)nc3F)c12 [Compound P-4015, {6-Fluoro-5-[4-(2-methoxy-ethoxy)-7H-pyrrolo[2,3-d]pyrimidin-5-ylmethyl]-pyridin-2-yl}-(6-methyl-pyridin-3-yl)-amine] | > 10 | < 0.01
